From patent US20150315179A1, “COMPOUNDS AND METHODS OF TREATING NEUROLOGICAL DISORDERS” (Torrey Pines Institute For Molecular Studies, priority 2014, published 2015)

What was measured:
[1] = test system: sAPPα release, fibroblasts derived from AD patients; experiment: sAPPα ELISA, AD fibroblasts; format: cell-based, human; conditions: 24 h
Description: (1). […] Therefore, we first used fibroblasts derived from AD patients (AG06263C, Coriell Cell repository, supported by NINDS/NIH) and exposed to THPI-244 for 24 h and measured sAPPα release by ELISA as done above for NT2 cells. […] We also confirmed dose-dependent effect of THPI-244 on sAPPα levels in human primary neurons transiently transfected with APP751 with Swedish mutation which is trafficked differently from WT APP and releases more sAPPα. Human neurons were grown on specially coated glass coverslips (cat # GG-18-PDL, NeuVitro, Germany). We could reproducibly achieve nearly 30% transfection efficiency using a nanoparticle based transfection reagent called Neuromag (cat # NM150299, OZ Biosciences, France).

[2] = test system: Aβ42 levels, NT2 cells stably expressing APP751; experiment: Aβ42 ELISA, NT2 stable cells; format: cell-based, human; conditions: ELISA
Description: (§1) (5). To confirm the effect of THPI-244 on sAPPα levels in a neuronal cell line and by a tertiary assay, we exposed human Neuron-committed Teratocarcinoma cell line (NT2) stably expressing human APP751 to different concentrations of THPI-244 for 24 h and compared with that of Bryostatin, a classical activator of PKC known to stimulate sAPPα release. […] Levels of sAPPα were measured by ELISA using commercially available kit (cat #27734, IBL-America, Minneapolis, Minn., USA). […] Similar biphasic effect of Bryostatin was confirmed for Aβ42 also, measured again in NT2 stable cells by ELISA (cat # KHB3441, Life Technologies, Grand Island, N.Y., USA). Consistent with sAPPα, THPI-244 decreased Aβ42 levels dose-dependently starting from 50 nM (28%, p<0.05) to 2000 nM (64%, p<0.001) (n=4 independent experiments) (FIG. 1.7). Thus THPI-244 increased non-amyloidogenic processing of APP in NT2 cells.

[3] = test system: sAPPα release, NT2 cells stably expressing human APP751; experiment: sAPPα ELISA, NT2 cells expressing APP751; format: cell-based; conditions: 24 h
Description: as §1

[4] = test system: NT2 cells stably expressing APP751; experiment: SAHA treatment, APP fragments in NT2 cells; format: cell-based, human; conditions: SAHA application
Source text: (§2) We utilized a commercially available AlphaLISA detection kit to develop an HTS assay for identification of compounds that increase sAPPα production in CHO cells stably expressing APP751 (7WD10 cells) (FIG. 2.1B). There are several cell lines that have been used extensively in Alzheimer's disease research. For example, NT2 cells are highly used in AD basic and drug discovery research because they are derived from a human embryonal carcinoma cell line and they can be differentiated into post-mitotic neuron-like cells that develop functional dendrites and axons resembling primary neurons of the human brain [39]. NT2 cells also synthesize amyloid precursor protein important in Alzheimer's disease. However, the rate of growth of NT2 cells is much slower than rate of growth of 7WD10s cells, which makes them less HTS-amenable. We have analyzed both 7WD10 and NT2 cells for expression of the hallmark proteins of Alzheimer's disease: soluble APPα, soluble APPβ, Aβ, and membrane-bound full length APP (APP-FL). […] Since it was shown that broad HDAC inhibition results in a decrease of Aβ and an increase of soluble APPα [41] we tested both cell lines for the effect of application of SAHA (suberoylanilide hydroxamic acid or vorinostat), a pan-HDAC inhibitor [42].

[5] = test system: 7WD10 (CHO) cells stably expressing APP751; experiment: SAHA treatment, APP fragments in 7WD10 (CHO) cells; format: cell-based; conditions: SAHA application
Description: (§3) Western blot sAPPα release assay. 7WD10 cells were grown in 6-well plates and treated with test compounds and SAHA (vorinostat) at several concentrations in duplicate wells. After 24 h of drug exposure, the conditioned media (CM) was collected, centrifuged to remove cell debris and subjected to SDS-PAGE electrophoresis. sAPPα (6E10, mouse IgG from IBL America ltd) was detected using indicated antibody. To detect APP-FL holoprotein and C-terminal fragments (CTFs, CT15 antibody), the cells were lysed using lysis buffer (1% NP40) with complete protease inhibitor mix (Sigma) supplemented with sodium vanadate and microcystine. Samples were subjected to SDS-PAGE, transferred and immunoblotted with indicated antibodies and detected by enhanced chemiluminescence method. Quantification of Western blot signals was done using ImageJ software.
as §2

[6] = test system: sAPPα in supernatants of 7WD10 cells; experiment: Western blot sAPPα release assay, 7WD10 cells; format: cell-based; conditions: as low as 10 nM, 7WD10 supernatants
Description: (2). To ascertain that hits identified as a result of AlphaLISA assay are not due to artifacts of the detection system, the sAPPα levels were measured by Western blots as a secondary assay downstream of primary HTS to confirm hits or discard artifacts of the AlphaLISA assay. The assay was performed using a range of concentrations of hit compounds (10-5,000 nM). A hit compound named thiazole piperazine #244 (THPI-244) and THPI-326 induced dose-dependent increase of sAPPα in supernatants of 7WD10 cells (FIG. 1.3). […] Since compound THPI-244 increased sAPPα levels more than THPI-326, we focused on THPI-244 for further validation.
as §3

[7] = test system: sAPPα release from 7WD10 cells; experiment: AlphaLISA sAPPα release assay (pilot screen); format: cell-based
Description: Pilot screen of AlphaLISA sAPPα release assay. 8 μL of assay media (DMEM supplemented with 10% FBS and 1× Penicillin/Streptomycin) containing 20,000 cells were added to all wells of the assay plate, except column 1 where only media was added. Plates were incubated for 4 h at 37° C., 5% CO2, 95% RH after which 80 nL of test compounds in DMSO or DMSO alone were added to respective wells using a pin tool device (VP Scientific, San Diego). After 24 h of incubation at 37° C., 5% CO2, 95% RH, sAPPα AlphaLISA beads were added in 10 μL of buffer, equilibrated for 1 h, and AlphaLISA signal was measured using a Biotek H4 Synergy microplate reader (Biotek Inc). Three parameters were calculated on a per-plate basis: (a) the signal-to-background ratio (S/B); (b) the coefficient for variation [CV; CV=(standard deviation/mean)×100)] for all compound test wells; and (c) the Z′-factor [31]. Nominally active compounds from the pilot screen were determined using mean plus 3 times the standard deviation (Mean+3SD) was used as the cut-off.

[8] = test system: TrkA; experiment: TrkA increase by THPI-244 analogs; format: cell-based
Source text: (§4) The following table illustrates Chemical structures and properties of THPI-244 analogs selected out of 37 analogs, and each have significant sAPPα increasing activity. Toxicity is the minimum dose for toxicity.

[9] = BBB of THPI-244 analogs
Source text: as §4

[10] = test system: sAPPα; experiment: sAPPα increasing activity of THPI-244 analogs; format: cell-based
Source text: as §4

[11] = test system: 7WD10 cells; experiment: CellTiter-Glo cell viability assay; format: cell-based; conditions: for viability: 100 μM
Description: Cell viability assay. 7WD10 cells were plated in 384-well plates in 8 μL of media. Plates were incubated for 4 and 24 h at 37° C., 5% CO2 and 95% RH. After incubation, 8 μL of CellTiter-Glo® (Promega cat#: G7570) were added to each well, and incubated for 15 min at room temperature. Luminescence was recorded using a Biotek Synergy H4 microplate reader. Viability is expressed as a % relative to wells containing media only (0%) and wells containing cells (100%).
In the absence of known pharmacological agents capable of inducing an increase of sAPPα release, we tested a small molecule (FIG. 2.4A insert, compound 1 in [2]) shown to decrease Aβ release. It was shown that decrease of Aβ release could be accompanied by the increase of soluble APPα, which has a neuroprotective effect. Compound 1 was tested using 20,000 cells/well in the range of 1.2-100 μM using 3-fold serial dilutions and 24 h incubation as an assay endpoint. Increase of sAPPα release was observed only in wells where 100 μM of compound 1 was added either with or without FBS (FIG. 2.4A). Viability of cells was also tested in the presence of 1.2-100 μM of compound 1 to ascertain that the increase of sAPPα release is not due to excessive cell death. Consistent with the above described results, cells were less viable in the absence of FBS. In the presence of 1.2-33 μM of compound 1, cells were approximately 10% less viable than untreated control either with or without FBS (FIG. 2.4B).

[12] = test system: sAPPα in conditioned medium of 7WD10 cells; experiment: sAPPα release ELISA, 7WD10 cells; format: cell-based; conditions: 24 h
Description: Starting from p-methylbenzhydrylamine hydrochloride (MBHA.HCl) resin; we developed different approaches toward the diversity oriented solid-phase parallel synthesis of different aminothiazole compounds 1-6 (Scheme 1) (Micheals, H A et al., 2014, ACS Comb. Sci. 16, 1-4; Nefzi, A et al., 2010, J. Org. Chem. 75, 7939-7941). 575 thiazole compounds were synthesized and were tested for sAPPα increasing activity using CHO cells stably expressing APP751 wt. For initial screenings we used a cell-based human sAPPα ELISA kit (cat#27734, IBL Co., ltd, Japan) following instructions from the manufacturer. The method involves sandwich ELISA and use of two specific antibodies and tetra methyl benzidine as a coloring agent. […]
sAPPα and Aβ40 release ELISA assay. […] The principle of the method is based on the use of tetra methyl benzidine (TMB) as a chromogen and the strength of the generated color is proportional to the quantities of human sAPPα. […] Plates were incubated with chromogen solution for 30 minutes, and read at 450 nm after adding stop solution. Levels of Aβ40 in the CM treated with different concentrations of compound 1 as detailed above were measured by sandwich ELISA exactly as described previously. Aβ40 was captured with Ab9 antibody (epitope, 1-16 of Aβ40) and detected with horseradish peroxidase-conjugated Ab13.1.1 antibody (epitope, 35-40 of Aβ40).

[13] = test system: Aβ40 in conditioned medium of 7WD10 cells; experiment: Aβ40 release ELISA, 7WD10 cells; format: cell-based
Source text: sAPPα and Aβ40 release ELISA assay. 7WD10 cells stably expressing APP751 were used for the detection of sAPPα in the conditioned medium (CM). For the detection of sAPPα, human sAPPα assay kit from IBL (Immuno-Biological Laboratories Co., Ltd, cat #27734) was used. The kit is a solid phase sandwich ELISA using two different antibodies. The principle of the method is based on the use of tetra methyl benzidine (TMB) as a chromogen and the strength of the generated color is proportional to the quantities of human sAPPα. Briefly, cells were grown in 6-well plates and treated with compound 1 at 0, 50, 75, 100, 125 and 150 μM final concentrations. After 24 hours of compound exposure, the CM was collected, centrifuged to remove cell debris and used in the assay. 100 μL of EIA buffer was used as blank. The 100 μL of test samples were put in to each well and incubated the precoated plate overnight at […] covered with plate lid. After overnight incubation, wells were vigorously washed with wash buffer several times. Then 100 μL of labeled antibody was added, incubated at 40 C for 30 minutes and washed again several times. Plates were incubated with chromogen solution for 30 minutes, and read at 450 nm after adding stop solution. Levels of Aβ40 in the CM treated with different concentrations of compound 1 as detailed above were measured by sandwich ELISA exactly as described previously. Aβ40 was captured with Ab9 antibody (epitope, 1-16 of Aβ40) and detected with horseradish peroxidase-conjugated Ab13.1.1 antibody (epitope, 35-40 of Aβ40).

SMILES: CCC/C=C/C=C/C(=O)O[C@H]1/C(=C/C(=O)OC)C[C@H]2C[C@H]([C@@H](C)O)OC(=O)C[C@H](O)C[C@@H]3C[C@H](OC(C)=O)C(C)(C)[C@](O)(C[C@@H]4C/C(=C/C(=O)OC)C[C@H](/C=C/C(C)(C)[C@]1(O)O2)O4)O3 [Bryostatin, reference compound]
- concentration from which sAPPα increase is significant [1]: 10 nM
- concentration from which Aβ42 decrease is significant [2]: 10 nM
- concentration from which sAPPα increase is significant [3]: 10 nM
- effect on sAPPα release [3]: increased sAPPα at low nM concentrations, but then decreased levels dose-dependently

SMILES: O=C(CCCCCCC(=O)Nc1ccccc1)NO [SAHA, suberoylanilide hydroxamic acid]
- Aβ [4]: decrease
- levels of APP-FL [4]: not affected
- sAPPβ [4]: decrease
- Aβ [5]: decrease
- levels of APP-FL [5]: not affected
- sAPPβ [5]: decrease

SMILES: CCC(C)C(=O)N1CCN(Cc2csc(NC[C@H](Cc3ccc(O)cc3)NC(=O)Cc3ccccc3)n2)CC1 (stereo partly shown) [THPI-326]
- increase of sAPPα over untreated control cells [6]: 2 fold
- increase of Alpha signal (sAPPα release) ([7]; 5 μM, 7WD10 cells, 24 h): ~2 fold

SMILES: Cc1cnc(C(=O)N[C@H](CNc2nc(CN3CCNCC3)cs2)c2ccccc2)cn1 [TPI-2336-55]
- % TrkA ↑ [8]: 69%
- % BBB [9]: 1.0%
- % sAPPα ↑ [10]: 217%

SMILES: c1ccc(CCNc2nc(CN3CCOCC3)cs2)cc1 [TPI-2336-99]
- % TrkA ↑ [8]: 51%
- % BBB [9]: 5.6%
- % sAPPα ↑ [10]: 160%

SMILES: c1ccc(CCNc2nc(CN3CCCCC3)cs2)cc1 [TPI-2336-100]
- % TrkA ↑ [8]: 54%
- % BBB [9]: 5.9%
- % sAPPα ↑ [10]: 166%

SMILES: O=C(NCCSCc1cccc(Cl)c1)c1c(Cl)cccc1Cl [compound 1, 2,6-dichloro-N-{2-[(3-chlorobenzyl)thio]ethyl}benzamide]
- viability ([11]; with FBS): ~70%
- viability ([11]; without FBS): ~40%
- loss of viability versus untreated control ([11]; 1.2-33 μM, with or without FBS): approximately 10%
- increase of sAPPα over untreated control cells ([12]; 100 μM): 2 fold
- maximal effect, increase of sAPPα ([12]; 150 μM): 3 fold
- decrease of Aβ40 supernatant levels ([13]; 100 μM): 24%
- decrease of Aβ40 supernatant levels ([13]; 125 μM): 43%
- decrease of Aβ40 supernatant levels ([13]; 150 μM): 49%
- increase of AlphaLISA signal ([7]; 100 μM compound 1, assay development and pilot screen): 2 fold
- concentration at which increase of sAPPα release was observed ([7]; tested 1.2-100 μM, 20,000 cells/well, 24 h, with or without FBS): 100 µM
